Reference: patent publication US20240400555A1 (Initial Therapeutics, Inc., priority 2023, published 2024)
Blank lines part the entries; values can stand above or below the compound they belong to.

Key:
[1] = test system: tumor growth; conditions: mice; cited from earlier work
[2] = test system: NB4 cells and Nalm-6 cells; conditions: APL-derived NB4 cells and ALL-derived Nalm-6 cells; cited from earlier work
[3] = test system: c-MYC; assay: Cellular c-MYC Alpha Screen; type: cell-based; conditions: Homo sapiens; c-MYC alpha screen dose response, HCT-116 reporter cells, 24 h; read-out: Geomean pIC50 (converted)
Description: HCT-116 Firefly-luciferase reporter cells (BPS bioscience) were seeded in 96-well tissue-culture treated sterile plates (Greiner Bio-One) at 7.5e4 cells/mL in 100 μL complete growth media (McCoy's 5A+10% FBS, +1% Pen-Strep, +1% G418). Cells were incubated at 37° C. with 5% CO2 for 24 h then treated with 3× compound solution in 50 μL complete growth media for a final volume of 150 μL per well with 0.2% DMSO. After 24 h incubation at 37° C. with 5% CO2, plates were allowed to equilibrate to RT for 20 min; the media was then aspirated, and the plate washed once with 200 μL 1×PBS. Cells were then lysed by addition of 1× Alpha Screen lysis buffer (50 μL) from the Perkin Elmer alpha Screen c-MYC detection kit (Part number 6760611C). The lysate is then transferred to ice and advanced to the Alpha Screen detection assay or sealed with adhesive foil and stored at −80° C. for up to 2 weeks before use.
The alpha screen detection assay was then performed as per the vendors instructions. Briefly the acceptor bead mix was prepared as per vendors instructions. 30 ul of the cell lysate is transferred to a 96-well white assay plate. 15 ul of the acceptor mix was added to each well and incubated in the dark for at least one hour. Then the donor bead mix was prepared as per vendors instructions and 15 ul of this was added to the assay plate. The plate was then incubated at RT for one hour in the dark. The plate was then read in the SpectraMax i3x plate reader (Molecular Devices) using the alpha screen module (excitation wavelength 680 emission wavelength 615) and analyzed using GraphPad Prism 9 software.

[4] = test system: HCT-116 Firefly-luciferase reporter cells; assay: Cellular c-MYC Reporter Assay; type: cell-based; conditions: Homo sapiens, HCT-116 Firefly-luciferase reporter cells, 24 h; for IC50: untitled table following Table 8a, read-out: pIC50 (converted); for EC50: HCT-116, 24 h, read-out: Geomean pEC50 (converted)
Outline: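 Compound exposure lasted 24 h at 37 °C, 5% CO2, in complete McCoy's 5A medium containing 0.2% DMSO, beginning 4–6 h post-seeding (5e4 cells/mL). Firefly luciferase signal measured by luminescence after 10 min ONE-Glo development at room temperature.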

[5] = test system: prostate cancer cell lines PC-3 and 22 Rv1; conditions: cited from earlier work
[6] = test system: c-MYC; assay: In Vitro Translation Dose-Response Curves (In Vitro Multiple Point Translation Screening Assay); type: biochemical; conditions: IVT dose response curve
Description: HeLa S3 cell Preparation. HeLa S3 cells were grown essentially as described in Mikami 2010. Frozen aliquots of banked HeLa cells (ATCC #CCL-2.2) were thawed and diluted into agitated suspension culture in CD293 medium supplemented with 10% HI FBS, 1× GlutaMAX, and 1× Pen/Strep. Cells were expanded in suspension over 10 passages to inoculate 3×20 L wave bag bioreactors and cultured for approximately 48 h to a final density of 1.81×10^6 viable cells per mL. Cells were pelleted by centrifugation at 2500 RCF for 15 min at 4° C. Two 1 L pellets were combined in 32 sets and re-pelleted in 50 ml conical tubes, resulting in 32×10 mL cell pellets weighing approximately 10 g each. Final pellets were snap frozen in liquid nitrogen and stored at −80° C. (cell culture, harvesting, and cryo-preservation completed at LakePharma). Cell pellets were subsequently thawed at RT, resuspended in 15 mL wash buffer (35 mM HEPES-KOH, pH 7.5, 140 mM NaCl, and 11 mM glucose), then re-pelleted by centrifugation at 2500 RCF for 10 min at 4° C. The supernatant was discarded and the wash step repeated 2×. The pellets were resuspended each pellet in 10 mL in hypertonic extraction buffer (20 mM HEPES-KOH, pH 7.5, 45 mM potassium acetate, 45 mM KCl, 1.8 mM magnesium acetate, and 1 mM TCEP added directly before use). The cell suspension was transferred to a cell disruption vessel (Parr Instrument Company, model 4636, 1850 mL capacity) and incubated for 15 min on ice, then sealed under nitrogen (200 PSI) for 1.5 h. The cell homogenates were released through a needle valve and collected on ice, then diluted with 1/29 volume high potassium buffer (20 mM HEPES-KOH, pH 7.5, 945 mM potassium acetate, 945 mM KCl, 1.8 mM magnesium acetate, and 1 mM TCEP). The cell homogenates were then clarified by centrifugation at 2500 RCF for 10 min at 4° C. and the supernatant collected. The clarification step was repeated 3×. The resulting cell extracts (675 mL, 2.5 mg/mL total protein) were aliquoted and flash frozen in liquid nitrogen and stored at −80° C. until use.
Translation reactions were incubated for 20 min at 30° C. Nanoluciferase luminescence was measured by combining 2 μL of IVT reaction with 20 μL of prepared reagent from the Nanoglo assay kit (Promega). A negative control of 0.5% DMSO and positive control of 50 μM puromycin were used to define to assay window.
Dose response curve IVTs were performed similar to the single point IVT screening with the following changes. The desired concentration curves were plated into 384 well plates from DMSO stocks using a Tecan D300e dispenser. […] After reaction incubation and luminescence measurement, dose-response curves were fit to the data using Prism (Graphpad) or Collaborative Drug Discovery analysis programs.

[7] = test system: human lung cancer cell lines (H23 and H292); conditions: cited from earlier work
[8] = test system: murine models of MM; conditions: three murine models; cited from earlier work
[9] = test system: MM cell; conditions: in vitro; cited from earlier work
[10] = test system: xenografts of human MM; conditions: in vivo; cited from earlier work

Compound: Cn1nc(C(F)(F)F)cc1-c1ccc(OCc2ccc(Cl)cc2)c(-c2cc(C(F)(F)F)cc(C(F)(F)F)c2)c1O [MYCi361]
in vivo tumor growth [1]: suppressed in vivo tumor growth in mice

Compound: CCc1ccc(/C=C2/SC(=S)NC2=O)cc1 [Compound 10058-F4]
viability of leukemia cells [2]: reduced viability

Compound: Cc1cc(C2CCN(C(=O)N(c3nccc4cccc(C)c34)[C@@H]3CCCNC3)CC2)on1 [Example 243, (R)—N-(8-methylisoquinolin-1-yl)-4-(3-methylisoxazol-5-yl)-N-(piperidin-3-yl)piperidine-1-carboxamide]
IC50 [3]: 398 nM | IC50 [4]: 525 nM

Compound: C=CCc1ccc(O)c(-c2ccc(O)c(CC=C)c2)c1 [Honokiol]
anti-cancer activity against prostate cancer cell lines [5]: significant anti-cancer activity | levels of total and/or phosphorylated c-MYC protein and its mRNA expression [5]: marked decrease

Compound: CCc1ccc(O)c(CN(C)Cc2cc(CC)ccc2O)c1 [EMD, N, N-bis(5-ethyl-2-hydroxybenzyl) methylamine]
cytotoxicity toward human lung cancer cell lines [7]: strong cytotoxicity

Compound: Cc1sc2c(c1C)C(c1ccc(Cl)cc1)=N[C@@H](CC(=O)OC(C)(C)C)c1nnc(C)n1-2 [JQ1]
efficacy in murine models of MM [8]: efficacious in three murine models of MM

Compound: O=C(c1cc(Cc2n[nH]c(=O)c3ccccc23)ccc1F)N1CCN(C(=O)C2CC2)CC1 [olaparib]
MM cell viability [9]: impaired MM cell viability in vitro | efficacy against xenografts of human MM [10]: effective against in vivo xenografts of human MM

Compound: COc1ccc2nnn(-c3ccc(C(=O)N(c4nccc5cccc(C)c45)[C@@H]4CCCNC4)c(F)c3)c2n1 [Example 187, (R)-2-fluoro-4-(5-methoxy-3H-[1,2,3]triazolo[4,5-b]pyridin-3-yl)-N-(8-methylisoquinolin-1-yl)-N-(piperidin-3-yl)benzamide]
IC50 [4]: 50.1 nM

Second part, the compound after the results:

Geomean pIC50 [6]: 6.0 (n = 4) | IC50 [3]: 158 nM
Compound: Cc1cccc2ccnc(N(C(=O)c3ccc(-n4nnc5cccnc54)cc3)[C@@H]3CCCNC3)c12 [Example 50, (R)-4-(3H-[1,2,3]triazolo[4,5-b]pyridin-3-yl)-N-(8-methylisoquinolin-1-yl)-N-(piperidin-3-yl)benzamide]

Geomean pIC50 [6]: 4.70 (n = 2)
Compound: Cc1cccc2ccnc(N(C(=O)c3ccc(-n4ccnn4)cc3)[C@@H]3CCCNC3)c12 [Example 54, (R)-N-(8-methylisoquinolin-1-yl)-N-(piperidin-3-yl)-4-(1H-1,2,3-triazol-1-yl)benzamide]

Geomean pIC50 [6]: 4.8 (n = 2) | IC50 [3]: 1000 nM | EC50 [4]: 251 nM
Compound: Cc1cccc2ccnc(N(C(=O)c3ccc(Nc4ncccn4)cc3)[C@@H]3CCCNC3)c12 [Example 51, (R)-N-(8-methylisoquinolin-1-yl)-N-(piperidin-3-yl)-4-(pyrimidin-2-ylamino)benzamide]

Geomean pIC50 [6]: 4.6 (n = 2) | EC50 [4]: 257 nM
Compound: Cc1cccc2ccnc(N(C(=O)c3ccc(-n4c(C)nc5ccccc54)cc3)[C@@H]3CCCNC3)c12 [Example 57, (R)-4-(2-methyl-1H-benzo[d]imidazol-1-yl)-N-(8-methylisoquinolin-1-yl)-N-(piperidin-3-yl)benzamide]

IC50 [4]: 170 nM
Compound: Cc1cccc2ccnc(N(C(=O)c3ccc(-n4nnc5ccc(Cl)nc54)cc3F)[C@@H]3CCCNC3)c12 [Example 192, (R)-4-(5-chloro-3H-[1,2,3]triazolo[4,5-b]pyridin-3-yl)-2-fluoro-N-(8-methylisoquinolin-1-yl)-N-(piperidin-3-yl)benzamide]
